Test results from ChEMBL document CHEMBL1142591, “Scalusamides A-C, new pyrrolidine alkaloids from the marine-derived fungus Penicillium citrinum” (2005).
Values after ≈ are worked out from the molar mass of the structure shown.

Assays:
Cryptococcus neoformans = experiment: Antifungal activity against Cryptococcus neoformans; assay type: functional
Micrococcus luteus = experiment: Antibacterial activity against Micrococcus luteus; assay type: functional

MIC (Cryptococcus neoformans): 16.7 µg/mL (≈ 59.3 µM) | MIC (Micrococcus luteus): 33.3 µg/mL (≈ 118 µM)
Compound: C/C=C/CCCCC(=O)C(C)C(=O)N1CCC[C@@H]1CO (some centres not stated) [SCALUSAMIDE A]
